From publication PMC10683025, “Discovery of a Hydroxylamine-Based Brain-Penetrant EGFR Inhibitor for Metastatic Non-Small-Cell Lung Cancer” (Journal of Medicinal Chemistry, 2023)
Where two headings read alike, the source gives them in different places.

Experiments:
[1] = target: T1, EGFR del E746_A750 (Homo sapiens, UniProt P00533, DEL746-750); test: KINOMEScan KdELECT Kd determination; type: binding
T1 construct: purchased Eurofins DiscoverX (contract assay)
Description: (§4) In vitro kinase activity (inhibitor binding constants (Kd) and biochemical inhibition (IC50’s)) were assessed by Eurofins DiscoverX (Kd determinations) and Eurofins Cerep (biochemical IC50 determinations).

[2] = Metabolic stability in liver microsomes; type: in vitro ADME, human; conditions: for Remaining Percentage: human LM
Description: (§5) Microsome stability was assessed in duplicate (n = 2) in the presence and absence of nicotinamide adenine dinucleotide phosphate (NADPH) with liver microsomes (0.5 mg/mL) from human (BD Gentest) and Sprague-Dawley rats (BD Gentest). Compounds were incubated in liver microsomes at 1 μM and samples (30 μL) were taken at 0.5, 15, 30, 45, and 60 min time points for analysis by LC-MS/MS. Hepatocyte stability was assessed in duplicate (n = 2) at a working cell density of 0.5 × 10^6 cells/mL with hepatocytes from human (BiolVT), Sprague-Dawley rat (BiolVT), cynomolgus monkey (RILD) or beagle dog (BiolVT). […] The in vitro half-life and intrinsic clearances were determined as previously described.[76]
(§6) In vitro half-life (in vitro t1/2) was determined from the slope value in [drawing 1] where k was determined by linear regression of the natural logarithm of the remaining percentage of the parent drug vs the incubation time curve.

[3] = Plasma protein binding by equilibrium dialysis; type: in vitro ADME
Description: (§1) Plasma protein binding and brain tissue binding were determined by Pharmaron, Inc. using the equilibrium dialysis method. […] Following incubation, the samples were analyzed by LC-MS/MS and the concentrations of the compounds were determined in the buffer and plasma solution chambers.

[4] = Metabolic stability in hepatocytes; type: in vitro ADME, Sprague-Dawley rat; conditions: for Remaining Percentages: rat hepatocytes
Description: as §5, §6

[5] = tested on: MDR1; test: MDCKII-MDR1 permeability; type: in vitro ADME, canine; conditions: dog, MDCK-MDR1
Description: (§7) A 96-well HTS Transwell plate (Corning) was used for Caco-2 and MDCKII-MDR1 cell seeding. […] Plates were incubated at 37 °C for 2 h, and samples (50 μL) were taken at the beginning and end of the incubation in both the donor and acceptor wells with the assay run in duplicate (n = 2). Samples were analyzed by LC-MS/MS.
(§8) The efflux ratio was determined by using the following equation: [drawing 4] where Papp (B–A) indicates the apparent permeability in the basolateral to apical direction and Papp (A–B) indicates the apparent permeability in the apical to basolateral direction.

[6] = MDCKII-MDR1 permeability; type: in vitro ADME, canine; conditions: dog, MDCK-MDR1, MDCKII-MDR1
Description: as §7, §8

[7] = target: T2, ABL1(F317I)-phosphorylated (Homo sapiens, UniProt P00519, F317I); test: KINOMEScan; type: binding; conditions: read-out: Percent Control
T2 construct: purchased Eurofins DiscoverX
Description: Percent control was mapped onto the kinome tree using TREEspot.

[8] = target: EGFRL858R (Homo sapiens, UniProt P00533, L858R); test: KINOMEScan KdELECT Kd determination; type: binding; parameters: purchased Eurofins DiscoverX (contract assay); conditions: L858R
Description: as §4

[9] = target: T3, hERG (Homo sapiens, UniProt Q12809); test: hERG manual patch clamp in HEK293; type: cell-based
T3 construct: host or cells: HEK293

[10] = Brain tissue binding by equilibrium dialysis; type: in vitro ADME; conditions: rat
Description: as §1

[11] = Caco-2 permeability; type: in vitro ADME; conditions: human; for recovery at 2 h, 5 μM: Caco-2, Caco-2
Description: as §7, §8

[12] = tested on: Ba/F3 EGFR-del E746_A750/C797S cells; test: CellTiter-Glo cell viability assay; type: cell-based; conditions: Mus musculus, BaF3; 72 h, unadjusted for FBS
Description: (§2) The A431, HCC827, SK-BR-3, ZR-75–30, AU565, and Caco-2 cell lines were obtained from ATCC. The NCI-H1975 cell line was obtained from SIBS. The NCI-H3255 cell line was obtained from CoBioer. Engineered Ba/F3 cell lines were obtained from Crown Bioscience. MCKII-MDR1 cells were obtained from The Netherlands Cancer Institute. HEK293 cells were obtained from Invitrogen. A431 cells were cultured in DMEM (Life Technologies) with 10% FBS. HCC827, NCI-H1975, and AU565 cells were cultured in RPMI1640 (Invitrogen) with 10% FBS. NCI-H3255 cells were cultured in BEGM (Lonza) with 10% FBS. Ba/F3 EGFR-del E746_A750/C797S and Ba/F3 EGFR-L858R/C797S cells were cultured in RPMI (Invitrogen) with 10% FBS. SK-BR-3 cells were cultured in McCoy’s 5a (Invitrogen) with 10% FBS. ZR-75-30 cells were cultured in RPMI1640 (Invitrogen) with 20% FBS. Caco-2 and MCKII-MDR1 culture information is given in the Permeability Studies section. HEK293 cells were cultured in DMEM (Gibco) with 10% FBS, 0.1 mM NEAA, 25 mM HEPES, 100 U/mL penicillin-streptomycin, μg/mL blasticidin, and 400 μg/mL Geneticin. All cells were cultured in a humidified incubator with 5% CO2 at 37 °C.
(§3) Viability assays using A431, HCC827, NCI-H1975, NCI-H3255, Ba/F3 EGFR-del E746_A750/C797S, Ba/F3 EGFR-L858R/C797S, AU565, SK-BR-3, and ZR-75-30 cells were performed at Crown BioScience. Cells were plated into 96-well plates at 1500–7000 cells per well and dosed in triplicate (n = 3) in a nine-point, 4-fold dilution series with compounds (0.15 nM to 10 μM) in DMSO and incubated for 72 h. After 72 h, cell viability was assayed by CellTiter-Glo Luminescent Viability Assay (Promega). Dose–response curves were generated and used to calculate the IC50 values which were calculated on GraphPad Prism from the nonlinear regression equation fitted with a sigmoidal dose response and are presented as mean ± SEM.

[13] = tested on: Ba/F3 EGFR-L858R/C797S cells; test: CellTiter-Glo cell viability assay; type: cell-based; conditions: Mus musculus, BaF3; 72 h, unadjusted for FBS
Description: as §2, §3

[14] = Metabolic stability in hepatocytes; type: in vitro ADME, human; conditions: for Remaining Percentages: human hepatocytes
Description: as §5, §6

[15] = tested on: NCI-H3255 (EGFR mutation = L858R); test: CellTiter-Glo cell viability assay; type: cell-based, human; conditions: NCI-H3255
Description: (§9) The NCI-H3255 cell line was obtained from CoBioer. […] NCI-H3255 cells were cultured in BEGM (Lonza) with 10% FBS. […] All cells were cultured in a humidified incubator with 5% CO2 at 37 °C.

[16] = tested on: HCC827 (EGFR mutation = exon19del); test: CellTiter-Glo cell viability assay; type: cell-based, human; conditions: Homo sapiens, HCC827; 72 h, unadjusted for FBS
Description: as §9

[17] = Sprague-Dawley, rat, rat plasma

T3 sequence (Q12809 whole entry): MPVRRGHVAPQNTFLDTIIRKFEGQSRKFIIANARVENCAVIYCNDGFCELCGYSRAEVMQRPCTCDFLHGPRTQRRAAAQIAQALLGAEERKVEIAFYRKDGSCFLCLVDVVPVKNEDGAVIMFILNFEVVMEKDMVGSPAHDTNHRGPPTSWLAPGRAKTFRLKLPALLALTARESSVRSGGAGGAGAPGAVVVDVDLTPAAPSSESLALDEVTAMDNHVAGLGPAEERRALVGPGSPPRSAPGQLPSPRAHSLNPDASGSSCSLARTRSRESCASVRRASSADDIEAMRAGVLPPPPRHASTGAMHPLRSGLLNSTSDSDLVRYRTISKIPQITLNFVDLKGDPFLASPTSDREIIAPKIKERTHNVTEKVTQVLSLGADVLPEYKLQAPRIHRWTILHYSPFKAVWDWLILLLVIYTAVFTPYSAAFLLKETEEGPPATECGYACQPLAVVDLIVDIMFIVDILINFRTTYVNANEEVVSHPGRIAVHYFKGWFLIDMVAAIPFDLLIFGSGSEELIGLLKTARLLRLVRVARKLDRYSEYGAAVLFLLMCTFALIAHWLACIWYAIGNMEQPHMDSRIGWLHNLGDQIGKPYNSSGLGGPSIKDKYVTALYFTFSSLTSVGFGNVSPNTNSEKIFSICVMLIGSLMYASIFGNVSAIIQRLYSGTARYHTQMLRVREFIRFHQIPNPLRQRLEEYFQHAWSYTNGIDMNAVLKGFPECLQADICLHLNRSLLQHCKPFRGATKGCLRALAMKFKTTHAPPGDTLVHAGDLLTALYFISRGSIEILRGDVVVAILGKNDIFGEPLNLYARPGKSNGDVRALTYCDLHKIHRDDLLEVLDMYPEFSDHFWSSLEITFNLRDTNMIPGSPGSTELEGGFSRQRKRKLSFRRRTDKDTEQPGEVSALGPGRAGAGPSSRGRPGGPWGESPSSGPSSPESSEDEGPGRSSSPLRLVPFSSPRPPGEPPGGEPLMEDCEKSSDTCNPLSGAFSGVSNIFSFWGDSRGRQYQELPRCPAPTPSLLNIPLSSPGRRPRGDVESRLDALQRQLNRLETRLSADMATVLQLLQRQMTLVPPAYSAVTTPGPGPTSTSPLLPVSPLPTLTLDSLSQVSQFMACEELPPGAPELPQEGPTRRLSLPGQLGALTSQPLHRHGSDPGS
T2 sequence (P00519 whole entry F317I): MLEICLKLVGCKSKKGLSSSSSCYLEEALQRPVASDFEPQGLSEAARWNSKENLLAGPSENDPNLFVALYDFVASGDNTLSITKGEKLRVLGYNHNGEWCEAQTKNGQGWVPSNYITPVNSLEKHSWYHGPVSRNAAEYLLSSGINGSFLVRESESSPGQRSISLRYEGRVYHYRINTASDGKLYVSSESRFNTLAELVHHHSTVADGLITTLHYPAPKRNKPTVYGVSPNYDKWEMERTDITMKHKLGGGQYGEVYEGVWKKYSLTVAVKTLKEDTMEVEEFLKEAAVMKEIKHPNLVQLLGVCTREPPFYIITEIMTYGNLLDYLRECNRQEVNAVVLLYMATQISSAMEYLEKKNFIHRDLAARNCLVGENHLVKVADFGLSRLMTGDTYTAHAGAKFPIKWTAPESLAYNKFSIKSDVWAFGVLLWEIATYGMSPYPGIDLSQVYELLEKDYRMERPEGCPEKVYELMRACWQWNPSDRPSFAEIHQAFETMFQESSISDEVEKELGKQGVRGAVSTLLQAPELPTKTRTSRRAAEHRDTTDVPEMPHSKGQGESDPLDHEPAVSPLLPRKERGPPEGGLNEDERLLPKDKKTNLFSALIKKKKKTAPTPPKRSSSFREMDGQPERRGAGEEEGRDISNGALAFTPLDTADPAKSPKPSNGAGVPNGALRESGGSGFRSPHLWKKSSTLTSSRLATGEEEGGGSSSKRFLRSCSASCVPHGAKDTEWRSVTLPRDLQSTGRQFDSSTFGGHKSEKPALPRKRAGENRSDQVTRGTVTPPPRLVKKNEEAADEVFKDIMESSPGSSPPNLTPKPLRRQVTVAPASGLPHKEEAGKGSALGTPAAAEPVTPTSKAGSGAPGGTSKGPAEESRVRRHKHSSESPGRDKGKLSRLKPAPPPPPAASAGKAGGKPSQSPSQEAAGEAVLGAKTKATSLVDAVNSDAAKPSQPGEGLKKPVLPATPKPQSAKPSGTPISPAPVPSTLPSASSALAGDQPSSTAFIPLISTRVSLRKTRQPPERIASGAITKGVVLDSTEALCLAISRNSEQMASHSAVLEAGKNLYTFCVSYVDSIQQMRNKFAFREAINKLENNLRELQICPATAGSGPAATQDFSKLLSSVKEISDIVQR
T1 sequence (P00533 with tags, fused parts or gaps DEL746-750): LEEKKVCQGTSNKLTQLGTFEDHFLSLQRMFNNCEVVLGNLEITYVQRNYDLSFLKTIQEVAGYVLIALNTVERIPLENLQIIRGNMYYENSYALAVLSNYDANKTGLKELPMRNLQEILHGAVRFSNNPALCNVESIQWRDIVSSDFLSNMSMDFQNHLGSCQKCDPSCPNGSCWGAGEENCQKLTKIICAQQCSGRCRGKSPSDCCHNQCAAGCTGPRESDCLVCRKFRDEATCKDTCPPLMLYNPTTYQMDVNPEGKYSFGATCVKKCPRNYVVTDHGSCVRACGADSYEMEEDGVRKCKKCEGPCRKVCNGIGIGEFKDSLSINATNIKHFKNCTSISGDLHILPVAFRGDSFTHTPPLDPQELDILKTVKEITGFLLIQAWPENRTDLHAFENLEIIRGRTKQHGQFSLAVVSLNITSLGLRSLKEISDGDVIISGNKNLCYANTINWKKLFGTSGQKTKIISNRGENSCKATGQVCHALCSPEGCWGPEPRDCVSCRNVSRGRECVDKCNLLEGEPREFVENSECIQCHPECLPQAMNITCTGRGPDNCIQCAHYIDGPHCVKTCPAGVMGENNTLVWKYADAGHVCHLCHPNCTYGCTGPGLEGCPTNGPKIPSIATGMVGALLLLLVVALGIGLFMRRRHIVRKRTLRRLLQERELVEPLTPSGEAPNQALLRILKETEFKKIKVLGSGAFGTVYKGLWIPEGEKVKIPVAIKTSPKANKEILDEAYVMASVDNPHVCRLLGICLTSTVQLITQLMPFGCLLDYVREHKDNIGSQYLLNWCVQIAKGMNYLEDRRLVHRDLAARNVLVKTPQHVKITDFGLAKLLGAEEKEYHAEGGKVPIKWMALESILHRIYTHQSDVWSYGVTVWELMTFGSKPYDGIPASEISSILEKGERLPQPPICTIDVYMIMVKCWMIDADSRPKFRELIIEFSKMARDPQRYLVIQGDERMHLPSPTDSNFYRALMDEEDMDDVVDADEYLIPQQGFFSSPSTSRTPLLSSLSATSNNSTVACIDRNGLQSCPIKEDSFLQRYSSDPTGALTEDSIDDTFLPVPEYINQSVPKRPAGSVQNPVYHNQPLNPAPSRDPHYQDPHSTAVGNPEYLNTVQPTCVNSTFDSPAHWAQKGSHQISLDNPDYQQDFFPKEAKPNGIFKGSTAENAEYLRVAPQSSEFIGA
Chain of EGFRL858R (P00533 25-1210 L858R): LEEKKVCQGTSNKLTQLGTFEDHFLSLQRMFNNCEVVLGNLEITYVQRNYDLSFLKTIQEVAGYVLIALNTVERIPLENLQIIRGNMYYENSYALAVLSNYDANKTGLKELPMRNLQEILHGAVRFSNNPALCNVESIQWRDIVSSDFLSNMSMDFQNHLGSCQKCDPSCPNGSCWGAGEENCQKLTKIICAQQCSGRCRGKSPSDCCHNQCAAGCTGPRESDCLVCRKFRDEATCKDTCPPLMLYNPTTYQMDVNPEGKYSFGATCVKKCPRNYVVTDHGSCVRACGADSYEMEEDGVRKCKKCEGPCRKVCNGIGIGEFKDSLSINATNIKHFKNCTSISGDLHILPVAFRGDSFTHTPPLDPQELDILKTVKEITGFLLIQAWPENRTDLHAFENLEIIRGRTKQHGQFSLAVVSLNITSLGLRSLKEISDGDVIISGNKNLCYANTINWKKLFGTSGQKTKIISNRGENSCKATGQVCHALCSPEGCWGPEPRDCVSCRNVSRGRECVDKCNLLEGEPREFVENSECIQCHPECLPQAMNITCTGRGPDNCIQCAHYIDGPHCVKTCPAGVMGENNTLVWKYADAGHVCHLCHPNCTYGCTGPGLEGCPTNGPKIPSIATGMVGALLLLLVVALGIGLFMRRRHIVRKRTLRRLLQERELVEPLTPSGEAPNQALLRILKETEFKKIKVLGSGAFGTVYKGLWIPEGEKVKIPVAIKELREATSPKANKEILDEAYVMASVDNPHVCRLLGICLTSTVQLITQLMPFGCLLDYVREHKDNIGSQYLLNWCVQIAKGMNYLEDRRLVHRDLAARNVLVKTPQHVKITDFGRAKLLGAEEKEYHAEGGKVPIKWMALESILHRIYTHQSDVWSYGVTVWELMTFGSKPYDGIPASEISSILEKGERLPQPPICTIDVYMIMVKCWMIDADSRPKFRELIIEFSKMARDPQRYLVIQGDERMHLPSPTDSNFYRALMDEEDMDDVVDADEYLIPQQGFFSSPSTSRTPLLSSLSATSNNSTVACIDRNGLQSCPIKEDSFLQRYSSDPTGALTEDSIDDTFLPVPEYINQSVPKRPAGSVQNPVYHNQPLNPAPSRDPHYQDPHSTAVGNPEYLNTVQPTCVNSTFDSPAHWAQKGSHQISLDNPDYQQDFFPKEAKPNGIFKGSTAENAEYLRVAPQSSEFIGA

COc1cc2ncnc(Nc3cccc(Cl)c3F)c2cc1OCCON1CCN(C)CC1 [Compound 9, N-(3-Chloro-2-fluorophenyl)-7-methoxy-6-(2-((4-methylpiperazin-1-yl)oxy)ethoxy)quinazolin-4-amine]
Kd [1]: < 0.2 nM
Remaining Percentage ([2]; +Cofactors, 15 min): 69.65%
Remaining Percentage ([2]; +Cofactors, 30 min): 46.26%
Remaining Percentage ([2]; +Cofactors, 45 min): 31.49%
Remaining Percentage ([2]; +Cofactors, 60 min): 26.65%
Remaining Percentage ([2]; -Cofactors, 60 min): 109.86%
half-life at 1 h, 1 µM ([2]; human, liver microsomes, read-out: LM t1/2): 30 min
microsomal CLint at 1 h, 1 µM ([2]; human, liver microsomes, read-out: LMClint): 46 µL/min/mg
fraction unbound at 6 h, 5 μM ([3]; Sprague-Dawley, rat, plasma, 5 μM, read-out: fu,plasma% / %Unbound): 0.128
recovery at 6 h, 5 μM [3, 17]: 106%
remaining at 6 h, 5 μM [3, 17]: 99.6%
fraction unbound at 6 h, 5 μM ([3]; Sprague-Dawley, rat, rat plasma, read-out: %Bound (converted)): 0.128
recovery at 6 h, 5 μM ([3]; human, human plasma): 101%
remaining at 6 h, 5 μM ([3]; human, human plasma): 102%
fraction unbound at 6 h, 5 μM ([3]; human, human plasma, read-out: fu,plasma% / %Unbound (converted)): 0.0442
fraction unbound at 6 h, 5 µM ([3]; plasma, human, 5 μM, read-out: fu,plasma% / %Unbound): 0.044
fraction unbound at 6 h, 5 μM ([3]; plasma, human, 5 μM, read-out: fu,plasma% / %Unbound (converted)): 0.0442
fu,plasma% / %Unbound ([3]; rat, 5 μM): 12.75%
hepatocyte CLint at 2 h, 1 µM ([4]; Sprague-Dawley, rat, hepatocytes): 70 µL/min/1e6 cells
half-life at 2 h, 1 µM ([4]; Sprague-Dawley, rat, hepatocytes, read-out: HEP t1/2): 19.7 min
Remaining Percentages ([4]; 15 min): 47.58%
Remaining Percentages ([4]; 30 min): 28.51%
Remaining Percentages ([4]; 60 min): 11.71%
Remaining Percentages ([4]; 90 min): 4.98%
Remaining Percentages ([4]; 120 min): 2.53%
efflux ratio at 2 h, 1 µM [5]: 0.9
efflux ratio at 2 h, 1 μM [5]: 0.92
Papp A→B at 2 h, 1 µM ([5]; 1 μM, 2 h): 9.8 ×10⁻⁶ cm/s
Papp A→B at 2 h, 1 μM ([5]; 1 μM, 2 h): 9.82 ×10⁻⁶ cm/s
Papp B→A at 2 h, 1 µM ([5]; 1 μM, 2 h): 9.1 ×10⁻⁶ cm/s
Papp B→A at 2 h, 1 μM ([5]; 1 μM, 2 h): 9.06 ×10⁻⁶ cm/s
recovery at 2 h, 1 μM ([6]; read-out: Recovery% (AP-BL)): 68.6%
recovery at 2 h, 1 μM ([6]; read-out: Recovery% (BL-AP)): 90%
remaining binding at 1 µM [7]: 48%
Kd [8]: < 0.2 nM
%hERG inhibition ([9]; 1 μM): 17%
IC50 ([9]; human, HEK293 cells stably transfected with hERG, HEK 293 (+hERG), manual patch clamp): 6480 nM
recovery at 6 h, 5 μM ([10]; Sprague-Dawley (SD), rat brain homogenate): 102%
fraction unbound at 6 h, 5 μM ([10]; Sprague-Dawley, brain homogenate, read-out: fu,brain% / %Unboundbrain): 0.0447
remaining at 6 h, 5 μM ([10]; Sprague-Dawley, rat brain homogenate): 94.7%
fraction unbound at 6 h, 5 μM ([10]; Sprague-Dawley, rat brain homogenate, read-out: %Boundbrain (converted)): 0.0447
fraction unbound at 6 h, 5 µM ([10]; brain homogenate, read-out: fu,brain% / %Unboundbrain): 0.045
efflux ratio at 2 h, 5 µM ([11]; Caco-2): 1.3
efflux ratio at 2 h, 5 μM ([11]; Caco-2): 1.32
recovery at 2 h, 5 μM ([11]; read-out: Recovery% (AP-BL)): 53.9%
recovery at 2 h, 5 μM ([11]; read-out: Recovery% (BL-AP)): 73.5%
Papp A→B at 2 h, 5 µM ([11]; Caco-2, 5 μM, 2 h): 6.5 ×10⁻⁶ cm/s
Papp A→B at 2 h, 5 μM ([11]; Caco-2, 5 μM, 2 h): 6.52 ×10⁻⁶ cm/s
Papp B→A at 2 h, 5 µM ([11]; Caco-2, 5 μM, 2 h): 8.6 ×10⁻⁶ cm/s
Papp B→A at 2 h, 5 μM ([11]; Caco-2, 5 μM, 2 h): 8.61 ×10⁻⁶ cm/s
IC50 [12]: 2.5 nM
IC50 [13]: 4.6 nM
Remaining Percentages ([14]; 15 min): 98.94%
Remaining Percentages ([14]; 30 min): 89.67%
Remaining Percentages ([14]; 60 min): 75.36%
Remaining Percentages ([14]; 90 min): 58.28%
Remaining Percentages ([14]; 120 min): 52.37%
hepatocyte CLint at 2 h, 1 µM ([14]; human, hepatocytes): 12 µL/min/1e6 cells
half-life at 2 h, 1 µM ([14]; human, hepatocytes, read-out: HEP t1/2): 117 min
IC50 ([15]; Homo sapiens, 72 h, unadjusted for FBS): 7.2 nM
improvement of IC50 over 6 [15]: roughly 12 fold
IC50 [16]: 3.1 nM
